Assay results: PMC3241888 (Nature chemical biology, 2011)

Target: T1, Pol δ (Saccharomyces cerevisiae, UniProt P15436)
T1 sequence (P15436 1-1097): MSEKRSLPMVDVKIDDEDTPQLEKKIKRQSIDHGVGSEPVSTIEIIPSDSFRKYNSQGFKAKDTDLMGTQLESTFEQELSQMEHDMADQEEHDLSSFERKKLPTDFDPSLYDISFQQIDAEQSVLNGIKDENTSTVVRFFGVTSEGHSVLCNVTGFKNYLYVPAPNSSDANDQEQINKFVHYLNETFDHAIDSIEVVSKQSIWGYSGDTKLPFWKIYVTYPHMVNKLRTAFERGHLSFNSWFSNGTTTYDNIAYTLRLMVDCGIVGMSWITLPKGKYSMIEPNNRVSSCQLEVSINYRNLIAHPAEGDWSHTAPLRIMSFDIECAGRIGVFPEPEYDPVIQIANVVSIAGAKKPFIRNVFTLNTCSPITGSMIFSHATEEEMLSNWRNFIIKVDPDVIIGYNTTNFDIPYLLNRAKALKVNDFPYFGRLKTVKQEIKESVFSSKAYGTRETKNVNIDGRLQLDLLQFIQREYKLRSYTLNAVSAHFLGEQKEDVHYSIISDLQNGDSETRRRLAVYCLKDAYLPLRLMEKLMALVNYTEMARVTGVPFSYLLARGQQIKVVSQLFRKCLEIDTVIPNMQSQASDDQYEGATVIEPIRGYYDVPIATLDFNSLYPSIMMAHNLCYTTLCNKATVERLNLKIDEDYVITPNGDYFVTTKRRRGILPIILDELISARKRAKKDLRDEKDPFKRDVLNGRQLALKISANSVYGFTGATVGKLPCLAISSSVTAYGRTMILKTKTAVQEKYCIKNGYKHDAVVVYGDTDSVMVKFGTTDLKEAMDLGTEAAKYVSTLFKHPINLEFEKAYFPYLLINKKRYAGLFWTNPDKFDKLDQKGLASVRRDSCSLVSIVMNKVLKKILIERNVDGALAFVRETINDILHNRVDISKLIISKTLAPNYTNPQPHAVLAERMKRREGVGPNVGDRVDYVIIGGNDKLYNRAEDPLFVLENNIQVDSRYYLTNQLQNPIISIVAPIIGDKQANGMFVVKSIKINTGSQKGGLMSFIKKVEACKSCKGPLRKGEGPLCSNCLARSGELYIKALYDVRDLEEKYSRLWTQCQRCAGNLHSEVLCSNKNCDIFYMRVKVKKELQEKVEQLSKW
T1 sequence (P46957 1-487 partner): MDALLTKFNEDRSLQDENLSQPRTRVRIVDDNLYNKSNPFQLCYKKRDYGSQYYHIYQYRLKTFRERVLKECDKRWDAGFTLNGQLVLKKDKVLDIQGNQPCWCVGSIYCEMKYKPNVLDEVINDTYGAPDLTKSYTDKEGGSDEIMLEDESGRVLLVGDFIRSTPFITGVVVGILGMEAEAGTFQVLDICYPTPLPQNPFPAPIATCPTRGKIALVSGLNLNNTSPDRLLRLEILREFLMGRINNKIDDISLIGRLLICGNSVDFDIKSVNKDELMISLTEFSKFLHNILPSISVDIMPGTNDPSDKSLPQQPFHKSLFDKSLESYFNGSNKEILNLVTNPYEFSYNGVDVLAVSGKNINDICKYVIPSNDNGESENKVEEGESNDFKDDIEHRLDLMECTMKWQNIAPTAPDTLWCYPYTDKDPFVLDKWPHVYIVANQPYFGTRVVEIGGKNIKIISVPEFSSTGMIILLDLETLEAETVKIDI
T1 sequence (P47110 1-350 partner): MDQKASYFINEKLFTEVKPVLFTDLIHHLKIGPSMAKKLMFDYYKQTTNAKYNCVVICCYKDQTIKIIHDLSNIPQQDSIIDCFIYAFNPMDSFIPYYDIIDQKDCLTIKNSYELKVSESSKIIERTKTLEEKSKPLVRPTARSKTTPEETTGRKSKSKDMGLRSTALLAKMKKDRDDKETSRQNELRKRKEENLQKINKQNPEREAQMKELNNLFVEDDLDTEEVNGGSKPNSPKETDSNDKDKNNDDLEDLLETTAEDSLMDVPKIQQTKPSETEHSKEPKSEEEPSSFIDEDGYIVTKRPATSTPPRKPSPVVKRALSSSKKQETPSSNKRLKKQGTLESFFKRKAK
Experiment: UV-Vis
Type: binding
Details: CysB site of Pol3; as isolated from yeast

[S]12[Fe]3[S]4[Fe]1[S]1[Fe]2[S]3[Fe]41 [[4Fe-4S] cluster]
mol non-heme iron and acid-labile sulfide ions per mol Pol δ: ~ 4 mol/mol
